Data published in ChEMBL document CHEMBL4406807, “Discovery of 3,4,6-Trisubstituted Piperidine Derivatives as Orally Active, Low hERG Blocking Akt Inhibitors via Conformational Restriction and Structure-Based Design” (J Med Chem, 2019).

Key:
hERG (KCNH2) = hERG (KCNH2) (Homo sapiens, UniProt Q12809); assay: Inhibition of ERG in human HEK293 cells at 3 uM at -80 mV holding potential by whole-cell patch clamp assay relative to control; type: cell-based; conditions: HEK293 cells expressing ERG
HCT-116 = assay: cells; conditions: Homo sapiens, HCT-116, 72 h
[1] = target: RAC-alpha serine/threonine-protein kinase (Homo sapiens, UniProt P31749)
Chain of RAC-alpha serine/threonine-protein kinase (P31749 whole entry): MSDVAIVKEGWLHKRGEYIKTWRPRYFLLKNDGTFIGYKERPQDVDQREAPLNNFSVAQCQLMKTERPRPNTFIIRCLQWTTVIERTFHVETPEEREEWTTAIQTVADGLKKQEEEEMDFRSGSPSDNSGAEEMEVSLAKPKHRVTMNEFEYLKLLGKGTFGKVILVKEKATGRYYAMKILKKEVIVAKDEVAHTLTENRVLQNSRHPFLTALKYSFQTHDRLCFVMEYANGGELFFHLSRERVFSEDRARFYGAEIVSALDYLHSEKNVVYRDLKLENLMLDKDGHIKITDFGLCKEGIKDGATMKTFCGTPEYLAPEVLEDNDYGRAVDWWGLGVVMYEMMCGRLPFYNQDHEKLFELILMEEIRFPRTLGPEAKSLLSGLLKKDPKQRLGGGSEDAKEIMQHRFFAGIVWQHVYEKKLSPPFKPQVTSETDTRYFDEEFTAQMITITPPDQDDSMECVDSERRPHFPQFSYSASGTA
Description: Inhibition of human Akt1 expressed in Escherichia coli using STK Substrate 2-biotin as substrate incubated for 1 hr by HTRF assay

OVCAR-8 = assay: Antiproliferative activity against human OVCAR8 cells; type: functional, cell-based
LNCaP = assay: Antiproliferative activity against human LNCAP cells; type: functional, cell-based
[2] = Toxicity in BALB/c nude mouse xenografted with human SKOV3 cells assessed as effect on body weight at 60 to 80 mg/kg, po administered once daily for 21 days; type: organism-based; conditions: in vivo, 504 h
[3] = target: T1, Serine/threonine-protein kinase Sgk1 (Homo sapiens, UniProt O00141); assay: Inhibition of human SGK by mobility shift assay
T1 sequence (O00141 whole entry): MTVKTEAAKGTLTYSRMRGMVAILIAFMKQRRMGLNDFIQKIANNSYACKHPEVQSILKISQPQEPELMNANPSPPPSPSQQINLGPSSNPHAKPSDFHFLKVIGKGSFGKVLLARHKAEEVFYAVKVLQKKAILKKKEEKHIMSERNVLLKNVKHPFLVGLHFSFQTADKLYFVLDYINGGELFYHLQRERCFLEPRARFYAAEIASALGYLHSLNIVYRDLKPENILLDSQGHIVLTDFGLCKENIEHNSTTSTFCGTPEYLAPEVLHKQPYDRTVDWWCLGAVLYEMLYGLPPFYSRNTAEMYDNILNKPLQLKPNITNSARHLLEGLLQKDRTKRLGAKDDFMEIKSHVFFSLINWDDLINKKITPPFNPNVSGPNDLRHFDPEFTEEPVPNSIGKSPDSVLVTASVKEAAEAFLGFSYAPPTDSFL

[4] = target: Ribosomal protein S6 kinase beta-1 (Homo sapiens, UniProt P23443); assay: Inhibition of human P70S6K by mobility shift assay
Chain of Ribosomal protein S6 kinase beta-1 (P23443 whole entry): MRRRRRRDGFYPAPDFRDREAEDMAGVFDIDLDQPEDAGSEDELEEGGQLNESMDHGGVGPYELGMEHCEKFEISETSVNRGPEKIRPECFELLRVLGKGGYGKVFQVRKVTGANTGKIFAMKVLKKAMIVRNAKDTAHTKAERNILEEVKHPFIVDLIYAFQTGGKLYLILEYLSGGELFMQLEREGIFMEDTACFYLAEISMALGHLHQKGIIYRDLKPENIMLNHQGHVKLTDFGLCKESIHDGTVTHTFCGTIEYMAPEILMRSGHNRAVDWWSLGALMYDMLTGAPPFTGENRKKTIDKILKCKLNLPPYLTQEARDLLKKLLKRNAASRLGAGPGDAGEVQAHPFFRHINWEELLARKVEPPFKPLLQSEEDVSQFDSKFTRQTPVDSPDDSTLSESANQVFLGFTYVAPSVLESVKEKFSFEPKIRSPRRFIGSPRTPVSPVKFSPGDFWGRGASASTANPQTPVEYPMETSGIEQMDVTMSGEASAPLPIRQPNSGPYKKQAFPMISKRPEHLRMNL

SK-OV-3 = assay: Antitumor activity against human SKOV3 cells xenografted in BALB/c nude mouse assessed as tumor growth inhibition at 60 mg/kg, po administered once daily for 21 days relative to control; type: functional; conditions: SK-OV-3, po, 504 h, read-out: TGI
[5] = Toxicity in BALB/c nude mouse xenografted with human SKOV3 cells assessed as reduction in mouse survival at 60 to 80 mg/kg, po administered once daily for 21 days; type: organism-based; conditions: in vivo, 504 h
[6] = target: Ribosomal protein S6 kinase alpha-1 (Homo sapiens, UniProt Q15418); assay: Inhibition of RSK1 (unknown origin) by mobility shift assay
Chain of Ribosomal protein S6 kinase alpha-1 (Q15418 whole entry): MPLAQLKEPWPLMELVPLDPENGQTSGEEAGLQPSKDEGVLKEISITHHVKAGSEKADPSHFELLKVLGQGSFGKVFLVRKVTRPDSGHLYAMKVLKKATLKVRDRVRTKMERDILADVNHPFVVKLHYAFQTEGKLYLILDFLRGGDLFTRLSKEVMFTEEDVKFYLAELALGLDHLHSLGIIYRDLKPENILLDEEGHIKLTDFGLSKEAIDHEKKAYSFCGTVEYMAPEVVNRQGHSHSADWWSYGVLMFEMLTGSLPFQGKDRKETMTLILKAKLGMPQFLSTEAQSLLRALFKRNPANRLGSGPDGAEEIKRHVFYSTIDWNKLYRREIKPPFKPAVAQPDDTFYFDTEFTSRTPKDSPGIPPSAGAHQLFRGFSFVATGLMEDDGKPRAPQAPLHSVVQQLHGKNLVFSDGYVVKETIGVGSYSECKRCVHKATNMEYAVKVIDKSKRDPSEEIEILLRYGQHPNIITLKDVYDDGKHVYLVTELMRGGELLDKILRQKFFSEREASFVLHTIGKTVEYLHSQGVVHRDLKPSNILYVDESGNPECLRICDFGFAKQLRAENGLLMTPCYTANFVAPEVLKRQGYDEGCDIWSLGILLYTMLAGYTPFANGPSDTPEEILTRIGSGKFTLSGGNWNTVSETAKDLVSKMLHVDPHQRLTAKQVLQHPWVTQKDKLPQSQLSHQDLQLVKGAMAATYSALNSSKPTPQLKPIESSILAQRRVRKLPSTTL

[7] = Inhibition of recombinant His-tagged human PKA expressed in Escherichia coli using Ser/Thr 01 as substrate after 1 hr by Z-lyte assay

Chain of hERG (KCNH2) (Q12809 whole entry): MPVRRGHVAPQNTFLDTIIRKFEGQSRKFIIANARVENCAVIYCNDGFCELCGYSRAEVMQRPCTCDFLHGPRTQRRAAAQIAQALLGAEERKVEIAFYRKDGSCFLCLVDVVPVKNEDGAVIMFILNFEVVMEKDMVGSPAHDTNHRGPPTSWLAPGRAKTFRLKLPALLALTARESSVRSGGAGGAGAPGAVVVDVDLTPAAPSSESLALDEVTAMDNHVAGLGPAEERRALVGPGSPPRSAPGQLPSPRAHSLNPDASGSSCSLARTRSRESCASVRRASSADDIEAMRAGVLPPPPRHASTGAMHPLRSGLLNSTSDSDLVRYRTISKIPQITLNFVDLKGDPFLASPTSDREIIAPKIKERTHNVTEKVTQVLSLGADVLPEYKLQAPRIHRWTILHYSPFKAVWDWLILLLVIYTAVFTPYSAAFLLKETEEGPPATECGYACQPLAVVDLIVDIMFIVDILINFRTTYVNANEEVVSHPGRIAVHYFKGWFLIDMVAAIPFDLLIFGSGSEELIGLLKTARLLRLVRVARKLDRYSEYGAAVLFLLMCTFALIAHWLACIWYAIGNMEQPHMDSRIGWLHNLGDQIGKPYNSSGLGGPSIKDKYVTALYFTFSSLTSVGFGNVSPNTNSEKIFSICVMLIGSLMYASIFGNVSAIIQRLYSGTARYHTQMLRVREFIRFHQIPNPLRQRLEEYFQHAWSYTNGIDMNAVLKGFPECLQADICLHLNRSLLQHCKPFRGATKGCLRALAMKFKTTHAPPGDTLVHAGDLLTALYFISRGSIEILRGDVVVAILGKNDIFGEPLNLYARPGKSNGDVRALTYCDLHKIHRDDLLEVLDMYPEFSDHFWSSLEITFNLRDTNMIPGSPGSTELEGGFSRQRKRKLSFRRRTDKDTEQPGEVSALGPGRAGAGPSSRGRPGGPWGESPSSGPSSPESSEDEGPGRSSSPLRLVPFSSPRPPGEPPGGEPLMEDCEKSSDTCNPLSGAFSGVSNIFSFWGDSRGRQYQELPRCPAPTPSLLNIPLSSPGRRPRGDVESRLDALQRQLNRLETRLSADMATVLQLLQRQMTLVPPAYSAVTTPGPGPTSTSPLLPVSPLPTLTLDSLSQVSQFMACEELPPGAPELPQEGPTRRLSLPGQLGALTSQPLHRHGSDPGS

IC50 (HCT-116) [nM] | IC50 [1] [nM] | IC50 (OVCAR-8) [nM] | IC50 (LNCaP) [nM] | Structure (SMILES) | inhibition at 3 µM (hERG (KCNH2)) [%] | Activity [2] | IC50 [3] [nM] | IC50 [4] [nM] | inhibition in vivo at 60 mg/kg (SK-OV-3) [%] | Activity [5] | IC50 [6] [nM] | IC50 [7] [nM]
1110 | 3.79 | 1610 | 70 | Cn1ncc(Cl)c1-c1cc(C(=O)N[C@@H]2CN[C@H](CC(O)CO)C[C@H]2c2ccc(Cl)c(Cl)c2)oc1Cl (some centres not stated) | 17 |  |  |  |  |  |  | 
450 | 2.64 | 1130 | 40 | CNC(=O)C[C@@H]1C[C@@H](c2ccc(Cl)c(Cl)c2)[C@H](NC(=O)c2cc(-c3c(Cl)cnn3C)c(Cl)o2)CN1 | 45.9 |  |  |  |  |  |  | 
920 | 3.29 | 1530 | 50 | Cn1ncc(Cl)c1-c1cc(C(=O)N[C@@H]2CN[C@H](CCNS(C)(=O)=O)C[C@H]2c2ccc(F)c(F)c2)oc1Cl | 8 |  |  |  |  |  |  | 
3720 | 21.6 | 5330 |  | Cn1nccc1-c1ccc(C(=O)N[C@@H]2CNCC[C@H]2c2ccc(F)c(F)c2)cc1 | 25 |  |  |  |  |  |  | 
510 | 2.56 | 600 | 210 | Cn1ncc(Cl)c1-c1cc(C(=O)N[C@@H]2CN[C@H](CCCO)C[C@H]2c2ccc(Cl)c(Cl)c2)oc1Cl | 72 |  |  |  |  |  |  | 
280 | 2.9 | 110 | 100 | Cn1ncc(Cl)c1-c1cc(C(=O)N[C@@H]2CNCC[C@H]2c2ccc(Cl)c(Cl)c2)oc1Cl | 87 |  |  |  |  |  |  | 
4020 | 1.94 | 5120 | 640 | Cn1ncc(Cl)c1-c1cc(C(=O)N[C@@H]2CN[C@H](CC(=O)O)C[C@H]2c2ccc(Cl)c(Cl)c2)oc1Cl | 9.1 |  |  |  |  |  |  | 
740 | 3.95 | 580 | 190 | Cn1ncc(Cl)c1-c1cc(C(=O)N[C@@H]2CN[C@H](CC(=O)NC3CC3)C[C@H]2c2ccc(Cl)c(Cl)c2)oc1Cl | 70.4 |  |  |  |  |  |  | 
1020 | 5.65 | 1660 | 1780 | Cn1ncc(Cl)c1-c1cc(C(=O)N[C@@H]2CN[C@H](CCN3CCCCC3)C[C@H]2c2ccc(Cl)c(Cl)c2)oc1Cl | 93.1 |  |  |  |  |  |  | 
 | 72.3 | 5820 |  | Cn1ncc(Cl)c1-c1ccc(C(=O)N[C@@H]2CNCC[C@H]2c2cccc(F)c2)cc1 | 10.7 |  |  |  |  |  |  | 
1940 | 6.41 | 1840 | 1920 | Cn1ncc(Cl)c1-c1cc(C(=O)N[C@@H]2CN[C@H](CCN3CCCC3)C[C@H]2c2ccc(Cl)c(Cl)c2)oc1Cl |  |  |  |  |  |  |  | 
560 | 4.47 | 1560 | 60 | Cn1ncc(Cl)c1-c1cc(C(=O)N[C@@H]2CN[C@H](CCn3cncn3)C[C@H]2c2ccc(Cl)c(Cl)c2)oc1Cl | 50.1 |  |  |  |  |  |  | 
670 | 1.41 | 1450 | 40 | Cn1ncc(Cl)c1-c1cc(C(=O)N[C@@H]2CN[C@H](CC(=O)NCCO)C[C@H]2c2ccc(Cl)c(Cl)c2)oc1Cl | 6.7 |  |  |  |  |  |  | 
650 | 3.24 | 1000 | 160 | Cn1ncc(Cl)c1-c1cc(C(=O)N[C@@H]2CN[C@H](CC(N)=O)C[C@H]2c2ccc(Cl)c(Cl)c2)oc1Cl | 15.7 |  |  |  |  |  |  | 
8700 | 255 | 3030 |  | Cn1cc(-c2c(Br)cnn2C)cc1C(=O)N[C@@H]1CNCC[C@H]1c1ccc(Cl)cc1 | 63.8 |  |  |  |  |  |  | 
800 | 3.31 | 690 | 100 | Cn1ncc(Cl)c1-c1cc(C(=O)N[C@@H]2CN[C@H](CC(O)CO)C[C@H]2c2ccc(F)c(F)c2)oc1Cl (some centres not stated) | 4.7 |  |  |  |  |  |  | 
1710 | 3.4 | 1510 | 1930 | CN(C)CC[C@@H]1C[C@@H](c2ccc(Cl)c(Cl)c2)[C@H](NC(=O)c2cc(-c3c(Cl)cnn3C)c(Cl)o2)CN1 | 73.4 |  |  |  |  |  |  | 
7090 | 3.13 | 5900 | 660 | Cn1ncc(Cl)c1-c1cc(C(=O)N[C@@H]2CN[C@H](CC(=O)NCC(O)CO)C[C@H]2c2ccc(Cl)c(Cl)c2)oc1Cl (some centres not stated) |  |  |  |  |  |  |  | 
340 | 2.74 | 610 | 160 | Cn1ncc(Cl)c1-c1cc(C(=O)N[C@@H]2CN[C@H](CCO)C[C@H]2c2ccc(Cl)c(Cl)c2)oc1Cl | 51.8 |  |  |  |  |  |  | 
470 | 7.01 | 1060 | 250 | COCC[C@@H]1C[C@@H](c2ccc(Cl)c(Cl)c2)[C@H](NC(=O)c2cc(-c3c(Cl)cnn3C)c(Cl)o2)CN1 |  |  |  |  |  |  |  | 
430 | 7.98 | 610 | 80 | Cn1ncc(Cl)c1-c1cc(C(=O)N[C@@H]2CN[C@H](CC(=O)NC3CCC3)C[C@H]2c2ccc(Cl)c(Cl)c2)oc1Cl |  |  |  |  |  |  |  | 
920 | 2.49 | 880 | 130 | CC(=O)NCC[C@@H]1C[C@@H](c2ccc(F)c(F)c2)[C@H](NC(=O)c2cc(-c3c(Cl)cnn3C)c(Cl)o2)CN1 | 7.4 |  |  |  |  |  |  | 
1020 | 10.4 | 1620 |  | CCC[C@@H]1C[C@@H](c2ccc(Cl)c(Cl)c2)[C@H](NC(=O)c2cc(-c3c(Cl)cnn3C)c(Cl)o2)CN1 | 85.3 |  |  |  |  |  |  | 
13700 | 5.99 | 15900 | 1140 | Cn1ncc(Cl)c1-c1cc(C(=O)N[C@@H]2CN[C@H](CCN3CCC(O)CC3)C[C@H]2c2ccc(Cl)c(Cl)c2)oc1Cl | 12 |  |  |  |  |  |  | 
1560 | 8.78 | 1760 | 410 | Cn1ncc(Cl)c1-c1cc(C(=O)N[C@@H]2CN[C@H](CCN3CCOCC3)C[C@H]2c2ccc(Cl)c(Cl)c2)oc1Cl | 82.3 |  |  |  |  |  |  | 

Structure (SMILES) | IC50 (HCT-116) [nM] | IC50 [1] [nM] | IC50 (OVCAR-8) [nM] | IC50 (LNCaP) [nM] | inhibition at 3 µM (hERG (KCNH2)) [%] | Activity [2] | IC50 [3] [nM] | IC50 [4] [nM] | inhibition in vivo at 60 mg/kg (SK-OV-3) [%] | Activity [5] | IC50 [6] [nM] | IC50 [7] [nM]
Cn1ncc(Cl)c1-c1cc(C(=O)N[C@H](CN)Cc2ccc(F)c(F)c2)oc1Cl [UPROSERTIB] | 720 to 1270 |  | 240 to 1320 | 70 | 50 to 50.2 | Non-Toxic | 211 | 60 | 63.3 | Non-Toxic | 339 | 0.6
